Source: US20260374739A1, “SMALL MOLECULAR WEIGHT CHEMICAL COMPOUND TO ANTAGONIZE EPH-EPHRIN TETRAMERIZATION AND INHIBIT BIDIRECTIONAL SIGNALING” (THE BOARD OF REGENTS OF THE UNIVERSITY OF TEXAS SYSTEM, priority 2022, published 2026)
Several values for one entry are separate records, joined by “and”; a condition that tells them apart may be missing. Identical values can stand only once.

target: T1, EphA3-EphrinA1 (Homo sapiens, UniProt P29320); test: Octet, immobilized human EphA3 binding to human EphrinA1; details: Human EphA3-EphrinA1; immobilized human EphA3; 50 nM soluble human EphrinA1; association; absolute; read-out: Absolute Association IC50
T1 sequence (P29320 21-541 limits assumed): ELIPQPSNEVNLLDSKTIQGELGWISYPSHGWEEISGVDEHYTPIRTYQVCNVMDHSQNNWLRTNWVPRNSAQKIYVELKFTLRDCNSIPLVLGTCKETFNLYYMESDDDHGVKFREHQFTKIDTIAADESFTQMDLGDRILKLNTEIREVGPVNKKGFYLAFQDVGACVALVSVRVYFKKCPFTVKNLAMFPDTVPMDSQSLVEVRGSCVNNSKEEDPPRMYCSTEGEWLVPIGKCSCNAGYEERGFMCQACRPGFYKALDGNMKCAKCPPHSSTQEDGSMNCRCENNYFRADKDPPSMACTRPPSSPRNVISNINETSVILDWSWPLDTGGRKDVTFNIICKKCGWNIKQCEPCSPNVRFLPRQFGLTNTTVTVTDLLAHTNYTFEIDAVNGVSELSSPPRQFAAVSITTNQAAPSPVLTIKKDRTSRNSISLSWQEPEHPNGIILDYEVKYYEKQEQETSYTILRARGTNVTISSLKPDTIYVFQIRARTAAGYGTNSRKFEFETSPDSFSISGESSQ
Experimental: (§1) The Octet system was used to probe the interactions of epitope-tagged human A class proteins, focusing on immobilized EphA3 binding to two of its cognate ligands, EphrinA1 and EphrinA5, as well as EphB2 binding to EphrinA5 (FIG. 27). […] Focusing on the dimerization-driven EphA3-EA5 interaction first (green sensorgram trace), which mimics what is disclosed above for EphB4-EB2, the initial binding of soluble EphrinA5 to the immobilized EphA3 is very fast and strong with a long and steep 84° slope of response that then quickly bends around 35 sec into the association step to form a more gradual tetramerization accumulation slope. […] However, again like the EphB4-EB2 interaction, once placed into dissociation, a significant fraction of the bound EA5 protein melts quickly and the off phase continues downward with a slow gradual decline in bound protein. Although the dissociation was for only 500 sec, the continued downward slope of the response indicates most of the bound EA5 protein would eventually melt off of the immobilized EphA3 protein. This is referred to as a classic dimerization-driven interaction, fast and strong initial binding in the association step but with most of the bound protein coming off in the dissociation due to lack of formation of stable tetramers. EphA3 interacts with EphrinA1 with totally different kinetics/dynamics (orange sensorgram trace). Here, the initial high 84° dimerization slope phase is extremely brief (5 sec) with the binding quickly snapping into a linear tetramerization accumulation phase with a 25° slope, and that once placed into dissociation step almost no bound protein melts, just the small amount that would represent dimer interactions falling off in the first few seconds after being placed into dissociation. […] EphB2 interacting with EA5 is similar to the EphA3-EA1 interaction, in that the association step is characterized by a very brief (5 sec) high 84° slope phase that quickly bends into a more gradual tetramer accumulation phase (blue sensorgram trace). […] The strong initial off phase of the EphB2-EA5 complexes in the dissociation represents both the melting of weak dimers and of the relatively weaker affinity tetramers formed by the cross A/B class EphB2-EA5 molecules.
(§2) While there is no effect of A20 on the initial 5 sec fast EphA3-EA1 dimer phase, there is a very strong effect of compound on tetramer accumulation. It was estimated that >70% of the EphA3-EA1 binding interaction can be attributed to the tetramer which is effectively disrupted by compound, with very little binding activity attributed to the dimer and more accurately the dimerization:tetramerization ratio of this interaction is 10:90 not 30:70. […] Since this is a dimerization-driven type interaction (dimerization:tetramerization ratio of here is 72:28), the overall effect of compound on this interaction is muted.

Compound | IC50
Oc1ccc(CN2CCOCC2)c2cccnc12 [Compound 1, 5-(morpholinomethyl)quinolin-8-ol] | 8240 nM
Oc1c(I)cc(CN2CCOCC2)c2cccnc12 [Compound 8, 4-((8-hydroxy-7-iodoquinolin-1-ium-5-yl)methyl)morpholin-4-ium chloride] | 450 nM and 1450 nM
O=S1(=O)CCN(Cc2ccc(O)c3ncccc23)CC1 [Compound 15, 4-((8-hydroxyquinolin-1-ium-5-yl)methyl)thiomorpholin-4-ium 1,1-dioxide chloride] | 100000 nM

same assay, conditions: Human EphA3-EphrinA1; immobilized human EphA3; 50 nM soluble human EphrinA1; association; relative; read-out: Relative Association IC50

Compound | IC50
Oc1ccc(CN2CCOCC2)c2cccnc12 [Compound 1, 5-(morpholinomethyl)quinolin-8-ol] | 6290 nM
Oc1c(I)cc(CN2CCOCC2)c2cccnc12 [Compound 8, 4-((8-hydroxy-7-iodoquinolin-1-ium-5-yl)methyl)morpholin-4-ium chloride] | 190 nM and 710 nM

same assay, conditions: Human EphA3-EphrinA1; immobilized human EphA3; 50 nM soluble human EphrinA1; dissociation; absolute; read-out: Absolute Dissociation IC50

Compound | IC50
Oc1ccc(CN2CCOCC2)c2cccnc12 [Compound 1, 5-(morpholinomethyl)quinolin-8-ol] | 6730 nM
Oc1c(Br)cc(CN2CCOCC2)c2cccnc12 [Compound 6, 4-((7-bromo-8-hydroxyquinolin-1-ium-5-yl)methyl)morpholin-4-ium chloride] | 1990 nM
Oc1c(I)cc(CN2CCOCC2)c2cccnc12 [Compound 8, 4-((8-hydroxy-7-iodoquinolin-1-ium-5-yl)methyl)morpholin-4-ium chloride] | 1200 nM and 1520 nM
O=S1(=O)CCN(Cc2ccc(O)c3ncccc23)CC1 [Compound 15, 4-((8-hydroxyquinolin-1-ium-5-yl)methyl)thiomorpholin-4-ium 1,1-dioxide chloride] | 29300 nM

same assay, conditions: Human EphA3-EphrinA1; immobilized human EphA3; 50 nM soluble human EphrinA1; dissociation; relative; read-out: Relative Dissociation IC50

Compound | IC50
Oc1ccc(CN2CCOCC2)c2cccnc12 [Compound 1, 5-(morpholinomethyl)quinolin-8-ol] | 2390 nM
Oc1c(I)cc(CN2CCOCC2)c2cccnc12 [Compound 8, 4-((8-hydroxy-7-iodoquinolin-1-ium-5-yl)methyl)morpholin-4-ium chloride] | 460 nM and 1140 nM

same assay, conditions: Relative Association IC50, Human EphA3-EphrinA1; immobilized human EphA3; 50 nM soluble human EphrinA1; association; relative

Compound | IC50 [nM]
Oc1c(Br)cc(CN2CCOCC2)c2cccnc12 [Compound 6, 4-((7-bromo-8-hydroxyquinolin-1-ium-5-yl)methyl)morpholin-4-ium chloride] | 7240
O=S1(=O)CCN(Cc2ccc(O)c3ncccc23)CC1 [Compound 15, 4-((8-hydroxyquinolin-1-ium-5-yl)methyl)thiomorpholin-4-ium 1,1-dioxide chloride] | 12300

same assay, conditions: Relative Dissociation IC50, Human EphA3-EphrinA1; immobilized human EphA3; 50 nM soluble human EphrinA1; dissociation; relative

Compound | IC50 [nM]
O=S1(=O)CCN(Cc2ccc(O)c3ncccc23)CC1 [Compound 15, 4-((8-hydroxyquinolin-1-ium-5-yl)methyl)thiomorpholin-4-ium 1,1-dioxide chloride] | 6000

target: T2, EphA3-EphrinA5 (Homo sapiens, UniProt P29320); test: Octet, immobilized human EphA3 binding to human EphrinA5; details: not given
T2 sequence (P29320 21-541 limits assumed): T1 sequence (P29320 21-541 limits assumed)
Experimental: as §1, §2

Compound | IC50 [nM]
Oc1ccc(CN2CCOCC2)c2cccnc12 [Compound 1, 5-(morpholinomethyl)quinolin-8-ol] | 3220
Oc1c(Br)cc(CN2CCOCC2)c2cccnc12 [Compound 6, 4-((7-bromo-8-hydroxyquinolin-1-ium-5-yl)methyl)morpholin-4-ium chloride] | 370
Oc1c(I)cc(CN2CCOCC2)c2cccnc12 [Compound 8, 4-((8-hydroxy-7-iodoquinolin-1-ium-5-yl)methyl)morpholin-4-ium chloride] | 360
O=S1(=O)CCN(Cc2ccc(O)c3ncccc23)CC1 [Compound 15, 4-((8-hydroxyquinolin-1-ium-5-yl)methyl)thiomorpholin-4-ium 1,1-dioxide chloride] | 2100

same assay, conditions: Human EphA3-EphrinA5; immobilized human EphA3; 50 nM soluble human EphrinA5; association; absolute; read-out: Absolute Association IC50

Compound | IC50 [nM]
Oc1ccc(CN2CCOCC2)c2cccnc12 [Compound 1, 5-(morpholinomethyl)quinolin-8-ol] | 100000
Oc1c(Br)cc(CN2CCOCC2)c2cccnc12 [Compound 6, 4-((7-bromo-8-hydroxyquinolin-1-ium-5-yl)methyl)morpholin-4-ium chloride] | 100000
Oc1c(I)cc(CN2CCOCC2)c2cccnc12 [Compound 8, 4-((8-hydroxy-7-iodoquinolin-1-ium-5-yl)methyl)morpholin-4-ium chloride] | > 1600
O=S1(=O)CCN(Cc2ccc(O)c3ncccc23)CC1 [Compound 15, 4-((8-hydroxyquinolin-1-ium-5-yl)methyl)thiomorpholin-4-ium 1,1-dioxide chloride] | 100000

same assay, conditions: Human EphA3-EphrinA5; immobilized human EphA3; 50 nM soluble human EphrinA5; association; relative; read-out: Relative Association IC50

Compound | IC50 [nM]
Oc1ccc(CN2CCOCC2)c2cccnc12 [Compound 1, 5-(morpholinomethyl)quinolin-8-ol] | < 1000
Oc1c(Br)cc(CN2CCOCC2)c2cccnc12 [Compound 6, 4-((7-bromo-8-hydroxyquinolin-1-ium-5-yl)methyl)morpholin-4-ium chloride] | 520
Oc1c(I)cc(CN2CCOCC2)c2cccnc12 [Compound 8, 4-((8-hydroxy-7-iodoquinolin-1-ium-5-yl)methyl)morpholin-4-ium chloride] | 500
O=S1(=O)CCN(Cc2ccc(O)c3ncccc23)CC1 [Compound 15, 4-((8-hydroxyquinolin-1-ium-5-yl)methyl)thiomorpholin-4-ium 1,1-dioxide chloride] | > 1000

same assay, conditions: Human EphA3-EphrinA5; immobilized human EphA3; 50 nM soluble human EphrinA5; dissociation; absolute; read-out: Absolute Dissociation IC50

Compound | IC50 [nM]
Oc1c(Br)cc(CN2CCOCC2)c2cccnc12 [Compound 6, 4-((7-bromo-8-hydroxyquinolin-1-ium-5-yl)methyl)morpholin-4-ium chloride] | 520
Oc1c(I)cc(CN2CCOCC2)c2cccnc12 [Compound 8, 4-((8-hydroxy-7-iodoquinolin-1-ium-5-yl)methyl)morpholin-4-ium chloride] | 480

same assay, conditions: Human EphA3-EphrinA5; immobilized human EphA3; 50 nM soluble human EphrinA5; dissociation; relative; read-out: Relative Dissociation IC50

Compound | IC50 [nM]
Oc1ccc(CN2CCOCC2)c2cccnc12 [Compound 1, 5-(morpholinomethyl)quinolin-8-ol] | 1240
O=S1(=O)CCN(Cc2ccc(O)c3ncccc23)CC1 [Compound 15, 4-((8-hydroxyquinolin-1-ium-5-yl)methyl)thiomorpholin-4-ium 1,1-dioxide chloride] | < 1000
